The source of these data is PMC6523162 (Metabolites, 2019).

“And” between values parts separate entries of the source, which are not always exact repeats. Identical values can stand only once.

Series [1] can be described thus: PAMPA gut passive permeability. The class given is in vitro ADME. The conditions noted are these: for -log Pe: PAMPA gut, 4 h. On the procedure:
(§1) Parallel Artificial Membrane Permeability Assay was performed to analyze both blood–brain barrier (BBB) and gut passive permeability. All materials for PAMPA were purchased from Pion, Inc (Billerica, MA, USA). Both the gut and BBB assays were performed according to the manufacturer’s instructions. Briefly, test compounds and standards were prepared at 10 mM concentrations in DMSO. For the gut assay, Prisma HT buffer was adjusted to pHs 5, 6.2, and 7.4 by adding 0.5 M NaOH. In the deepwell plate provided by Pion, 1 mL of each pH-adjusted buffer was added to separate wells. For each pH, 5 µL of the sample was added to the 1 mL of buffer then mixed thoroughly with a pipette, diluting the sample to a final concentration of 50 µM. Next, 200 µl of the diluted sample was added to the donor (bottom) plate from the Pion sandwich assay, 5 µL of GIT lipid matrix was added to the membrane on the bottom of the acceptor plate, and 200 µL of acceptor sink buffer was added in each well of the acceptor plate. The sandwich was assembled, and the plate incubated at room temperature for 4 h undisturbed. In BBB assays, compounds (10 mM) were diluted to final concentrations of 50 µM in Prisma HT Buffer (pH = 7.4). The PAMPA sandwich was created with the donor (bottom), BBB artificial membrane, and brain sink buffer as the acceptor (top). The assay was performed for 1 h at room temperature with shaking (60 µm) using the manufacturer-supplied GIT Box. After incubation, the UV profiles of the donor and acceptor plates were read on the SpectraMax plate reader connected to the PAMPA software. PAMPA software calculated the –log Pe values for each compound and standard using the UV profiles of the donor and acceptor plates.

Series [2] is described as follows: PAMPA BBB passive permeability. Format: in vitro ADME. Conditions: for PAMPA BBB permeability (in words): pH 7.4; for -log Pe: PAMPA BBB, pH 7.4, 50 µM, 1 h. On the procedure: as §1
A general note: PAMPA measures passive passage across an artificial lipid membrane.

Series [3] relates to nitric oxide production in LPS-stimulated BV-2 murine microglia. Description: Nitric oxide quantification (Griess assay) in LPS-stimulated BV-2. Conditions: for nitric oxide concentration: 10 μM compound + LPS 1 μg/mL; for Mean Diff., LPS (1 μg/mL) vs. compound, NOS production: Tukey's multiple comparisons test. The class given is cell-based. As for the experimental part:
(§2) As previously published, BV-2 cells were seeded at a density of 100,000 cells/mL in 24-well plates. […] Media were collected, aliquoted for nitric oxide and cytokine analysis.
Nitric oxide was detected in BV-2 culture media following the stimulation of LPS for 24 h from the previously described experiment by way of the Griess Assay (Promega, Madison WI), according to the manufacturer’s protocol.
For orientation: The Griess reaction detects nitrite, a stable product of nitric oxide.

Series [4] relates to TNF-α release from LPS-stimulated BV-2 murine microglia. Nature of the series: TNF-α ELISA in LPS-stimulated BV-2 media. Format: cell-based. Conditions: for reduction of TNF-α compared to LPS: LPS 1 μg/mL; for Mean Diff., LPS (1 μg/mL) vs. compound, TNF-α: Tukey's multiple comparisons test; for effect on TNF-α production (in words): 20 μM and 10 μM, compared to LPS-induced treatment. On the procedure: as §2
(§3) IL-6 and TNF-α were measured from BV-2 media using Enzyme Linked Immunosorbent Assay (ELISA) provided by Biolegend (San Diego, CA, USA).
In general terms: ELISA stands for enzyme-linked immunosorbent assay.

For series [5], the system named is IL-6 release from LPS-stimulated BV-2 murine microglia. Description: IL-6 ELISA in LPS-stimulated BV-2 media. Format: cell-based. Conditions: for IL-6 concentration: 10 μM compound + LPS 1 μg/mL; for reduction of IL-6 production compared to LPS: LPS 1 μg/mL; for Mean Diff., LPS (1 μg/mL) vs. compound, IL-6: Tukey's multiple comparisons test. On the procedure: as §2, §3

Series [6] concerns nitric oxide production in LPS-stimulated BV-2 murine microglia. Description: Nitric oxide quantification (Griess assay) in LPS-stimulated BV-2. Conditions: 1 h pre-treatment, LPS 1 μg/mL 23 h. Format: cell-based.

`CNC(=C[N+](=O)[O-])NCCSCc1ccc(CN(C)C)o1` [Ranitidine, ranitidine, reference compound]: the “PAMPA gut permeability (in words)” value in series [1] (pH 5.0, 6.2 and 7.4) is reported as “low”.
As to `COc1cc(C[C@@H](CO)[C@H](CO)Cc2ccc(O)c(OC)c2)ccc1O` [SECO, secoisolariciresinol], the “PAMPA gut permeability (in words)” value in series [1] (pH 5.0, 6.2 and 7.4) is recorded as “moderate permeability”. Besides, the “PAMPA BBB permeability (in words)” value in series [2] is listed as “low permeability”. The nitric oxide concentration in series [3] was 46.35 µM. Also, the “Mean Diff., LPS (1 μg/mL) vs. compound, NOS production” value in series [3] (10 μM) was determined as 4.653. In addition, the TNF-α concentration in series [4] (10 μM compound + LPS 1 μg/mL) turned out to be 497.8 pg/mL. Further, in series [4] (10 μM), the “reduction of TNF-α compared to LPS” value worked out at 3.97% and the “Mean Diff., LPS (1 μg/mL) vs. compound, TNF-α” value is reported as 20.62. For the same compound, in series [5], the IL-6 concentration is 672.8 pg/mL. Also, in series [5] (10 μM), the “reduction of IL-6 production compared to LPS” value (shortened to “reduction of IL-6 production”) turned out to be 1.05% and the “Mean Diff., LPS (1 μg/mL) vs. compound, IL-6” value is -7.108. Moreover, in series [6] (10 μM), the “reduction of nitric oxide compared to LPS alone” value (“reduction of nitric oxide” for short) was “approximately 9.13%”.
`O=C1OC[C@H](Cc2cccc(O)c2)[C@H]1Cc1cccc(O)c1` [EL, enterolactone]: in series [1] (pH 5, 50 µM), the “-log Pe” value is 4.27 ± 0.05. Further, the “-log Pe” value in series [1] (pH 6.2, 50 µM) is recorded as 4.37 ± 0.02. Also, in series [2], the “-log Pe” value is recorded as 3.97 ± 0.14 and the “PAMPA BBB permeability (in words)” value is given as “high permeability”. Besides, in series [3], the nitric oxide concentration was 35.67 µM. The “Mean Diff., LPS (1 μg/mL) vs. compound, NOS production” value in series [3] (10 μM) amounted to 15.34. Further, the TNF-α concentration in series [4] (10 μM compound + LPS 1 μg/mL) is reported as 365.6 pg/mL. Besides, in series [4] (10 μM), the “reduction of TNF-α compared to LPS” value amounted to 29.47% and the “Mean Diff., LPS (1 μg/mL) vs. compound, TNF-α” value turned out to be 152.8. Also, in series [5], the IL-6 concentration is 489.9 pg/mL. Besides, in series [5] (10 μM), the “reduction of IL-6 production” value is on record as roughly 26.41% and the “Mean Diff., LPS (1 μg/mL) vs. compound, IL-6” value worked out at 175.8. Also, the “reduction of nitric oxide” value in series [6] (10 μM) is reported as roughly 30.07%.
Turning to `O=c1c(-c2ccc(O)cc2)coc2cc(O)cc(O)c12` [GEN, genistein], the “-log Pe” value in series [2] is 4.26 ± 0.16. In series [2], the “PAMPA BBB permeability (in words)” value was “Intermediate BBB permeability”. Besides, the “Mean Diff., LPS (1 μg/mL) vs. compound, NOS production” value in series [3] (10 μM) turned out to be 14.41; in series [3] (20 μM) it was 26.17. The “reduction of TNF-α compared to LPS” value in series [4] (10 μM) turned out to be 16.6%; in series [4] (20 μM) it was 29.1%. For the same compound, the “Mean Diff., LPS (1 μg/mL) vs. compound, TNF-α” value in series [4] (10 μM) amounted to 113.8; in series [4] (20 μM), 199.8. Moreover, the “reduction of IL-6 production” value in series [5] (10 μM) came out at 34.0%; in series [5] (20 μM) it was 80.4%. In addition, the “Mean Diff., LPS (1 μg/mL) vs. compound, IL-6” value in series [5] (10 μM) was 35.15; in series [5] (20 μM), 83.38. For the same compound, the entries for the “reduction of nitric oxide” value in series [6] (10 μM) and in series [6] (20 μM) were 38% and 68%, respectively.
Regarding “lipopolysaccharide [LPS, reference compound]”, the “nitric oxide species concentration” value in series [3] (LPS 1 μg/mL alone) was 41.5 ± 5.6 µM and 51.01 µM. The TNF-α concentration in series [4] (LPS 1 μg/mL alone) was 687.7 ± 8.0 pg/mL and 518.4 pg/mL.
Turning to `CC(C(=O)O)c1cccc(C(=O)c2ccccc2)c1` (stereo not drawn) [Ketoprofen, ketoprofen, reference compound], in series [1] (pH 5.0, 6.2 and 7.4), the “PAMPA gut permeability (in words)” value is reported as “variable permeability with pH change”.
Regarding `OC[C@H](Cc1cccc(O)c1)[C@H](CO)Cc1cccc(O)c1` [ED, enterodiol], the “PAMPA gut permeability (in words)” value in series [1] (pH 5.0, 6.2 and 7.4) was “lowest permeability of all test compounds”. Besides, the “PAMPA BBB permeability (in words)” value in series [2] is “low permeability”. Moreover, the nitric oxide concentration in series [3] was found to be 46.65 µM. The “Mean Diff., LPS (1 μg/mL) vs. compound, NOS production” value in series [3] (10 μM) is recorded as 4.354. Moreover, the TNF-α concentration in series [4] (10 μM compound + LPS 1 μg/mL) amounted to 515.8 pg/mL. In addition, in series [4] (10 μM), the “reduction of TNF-α compared to LPS” value is reported as 0.5% and the “Mean Diff., LPS (1 μg/mL) vs. compound, TNF-α” value stood at 2.638. The IL-6 concentration in series [5] was found to be 690.6 pg/mL. Besides, in series [5] (10 μM), the “reduction of IL-6 production” value is “approximately 3.74%” and the “Mean Diff., LPS (1 μg/mL) vs. compound, IL-6” value is listed as -24.9. Besides, the “reduction of nitric oxide” value in series [6] (10 μM) was roughly 8.54%.
For `Oc1ccc([C@H]2COc3cc(O)ccc3C2)cc1` [EQ, equol], the “-log Pe” value in series [1] (pH 5, 50 µM) is 4.35 ± 0.11; in series [1] (pH 6.2, 50 µM) it was 4.20 ± 0.02; in series [2], 3.52 ± 0.20. For the same compound, the “PAMPA BBB permeability (in words)” value in series [2] is given as “high permeability”. Also, the “Mean Diff., LPS (1 μg/mL) vs. compound, NOS production” value in series [3] (10 μM) came to 6.216; in series [3] (20 μM) it was 8.47. For the same compound, the “Mean Diff., LPS (1 μg/mL) vs. compound, TNF-α” value in series [4] (10 μM) was determined as 57.03; in series [4] (20 μM) it was 72.78. The “effect on TNF-α production (in words)” value in series [4] was “similar, albeit less potent, protective abilities”. Also, the “Mean Diff., LPS (1 μg/mL) vs. compound, IL-6” value in series [5] (10 μM) is 10.39; in series [5] (20 μM) it was 19.48. Moreover, the “reduction of nitric oxide” value in series [6] (20 μM) is given as 22%.
On to `Cc1cc(=O)n(-c2ccccc2)n1C` [Antipyrine, reference compound], for which, in series [1] (pH 5), the “PAMPA gut permeability (in words)” value was “medium”.
For the compound `O=c1c(-c2ccc(O)cc2)coc2cc(O)ccc12` [DAI, daidzein], the “PAMPA gut permeability (in words)” value in series [1] (pH 5.0, 6.2 and 7.4) is “most permeable at pHs 5 and 6.2”. The “Mean Diff., LPS (1 μg/mL) vs. compound, NOS production” value in series [3] (10 μM) is on record as 4.129; in series [3] (20 μM) it was 9.223. Moreover, the figures for the “Mean Diff., LPS (1 μg/mL) vs. compound, TNF-α” value in series [4] (10 μM) and in series [4] (20 μM) were 57.91 and 70.55, respectively. Further, the “effect on TNF-α production (in words)” value in series [4] is “similar, albeit less potent, protective abilities”. Moreover, the “Mean Diff., LPS (1 μg/mL) vs. compound, IL-6” value is 17.26 in series [5] (10 μM) and 20.68 in series [5] (20 μM). Besides, the “reduction of nitric oxide” value in series [6] (20 μM) is reported as 24%.
